The target in this experiment is CREBBP (Homo sapiens (Human), UniProt Q92793). The experiment is described as follows: In vitro enzyme inhibition assay - CREBBP inhibition (AlphaScreen, biotinylated H4-tetraacetyl peptide). The class given is binding. Particulars: Table 28; AlphaScreen, H4-tetraacetyl peptide. The method, boiled down:
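His-tagged CREBBP expressed in E. coli (50 nM final) incubated with biotinylated H4K5/8/12/16(Ac) peptide (20 nM final) in HEPES pH 7.3 buffer, 0.4% DMSO, 20 min at room temperature.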

Where only a bound is given, the exact number is not on record here.

Broadly, the IC50 is the concentration that gives 50% inhibition. A low value points to greater potency.

Sequence of CREBBP (Q92793 1081-1197): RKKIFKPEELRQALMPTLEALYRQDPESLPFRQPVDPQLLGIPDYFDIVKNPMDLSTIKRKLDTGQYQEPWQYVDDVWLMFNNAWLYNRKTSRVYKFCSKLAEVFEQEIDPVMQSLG

In turn, `CCCCS(=O)(=O)Nc1cc(-c2cc(C)c(=O)n(C)c2)nc(OC2CCCCC2)n1` [Example 249, Butane-1-sulfonic acid [2-cyclohexyloxy-6-(1,5-dimethyl-6-oxo-1,6-dihydro-pyridin-3-yl)-pyrimidin-4-yl]-amide] had an IC50 of less than 500 nM. Next, `Cc1cc(-c2cc(NS(=O)(=O)C(C)C)nc(OC3CCCCC3)n2)cn(C)c1=O` [Example 250, Propane-2-sulfonic acid [2-cyclohexyloxy-6-(1,5-dimethyl-6-oxo-1,6-dihydro-pyridin-3-yl)-pyrimidin-4-yl]-amide]: less than 500 nM. Next, `CC(C)CCS(=O)(=O)Nc1cc(-c2ccc(=O)n(C)c2)nc(Oc2c(F)cccc2Cl)n1` [Example 251, 3-Mehtyl-butane-1-sulfonic acid [2-(2-chloro-6-fluoro-phenoxy)-6-(1-methyl-6-oxo-1,6-dihydro-pyridin-3-yl)-pyrimidin-4-yl]-amide]: less than 500 nM; `Cc1cccc(Cl)c1Oc1nc(NS(=O)(=O)CCC(C)C)cc(-c2ccc(=O)n(C)c2)n1` [Example 252, 3-Methyl-butane-1-sulfonic acid [2-(2-chloro-6-methyl-phenoxy)-6-(1-methyl-6-oxo-1,6-dihydro-pyridin-3-yl)-pyrimidin-4-yl]-amide]: less than 500 nM. Next, `CCC(CC)S(=O)(=O)Nc1cc(-c2ccc(=O)n(C)c2)nc(Oc2c(C)cccc2F)n1` [Example 253, Pentane-3-sulfonic acid [2-(2-fluoro-6-methyl-pphenoxy)-6-(1-methyl-6-oxo-1,6-dihydro-pyridin-3-yl)-pyrimidin-4-yl]-amide]: less than 500 nM; `CCC(CC)S(=O)(=O)Nc1cc(-c2ccc(=O)n(C)c2)nc(Oc2c(F)cccc2Cl)n1` [Example 254, Pentane-3-sulfonic acid [2-(2-chloro-6-fluoro-phenoxy)-6-(1-methyl-6-oxo-1,6-dihydro-pyridin-3-yl)-pyrimidin-4-yl]-amide]: less than 500 nM; `CCCCS(=O)(=O)Nc1cc(-c2ccc(=O)n(C)c2)nc(Oc2c(F)ccc(C)c2Cl)n1` [Example 255, Butane-1-sulfonic acid [2-(2-chloro-6-fluoro-3-methyl-phenoxy)-6-(1-methyl-6-oxo-1,6-dihydro-pyridin-3-yl)-pyrimidin-4-yl]-amide]: less than 500 nM. `Cc1ccc(F)c(Oc2nc(NS(=O)(=O)C(C)C)cc(-c3ccc(=O)n(C)c3)n2)c1Cl` [Example 256, Propane-2-sulfonic acid [2-(2-chloro-6-fluoro-3-methyl-phenoxy)-6-(1-methyl-6-oxo-1,6-dihydro-pyridin-3-yl)-pyrimidin-4-yl]-amide] returned a half-inhibitory concentration (IC50) of less than 500 nM. For `CCCCS(=O)(=O)Nc1cc(-c2ccc(=O)n(C)c2)nc(Oc2c(F)ccc(C)c2F)n1` [Example 257, Butane-1-sulfonic acid [2-(2,6-difluoro-3-methyl-phenoxy)-6-(1-methyl-6-oxo-1,6-dihydro-pyridin-3-yl)-pyrimidin-4-yl]-amide], the concentration for half-maximal inhibition (IC50) is less than 500 nM.

Consider `CCCCS(=O)(=O)Nc1cc(-c2ccc(=O)n(C)c2)nc(Oc2c(Cl)ccc(C)c2F)n1` [Example 258, Butane-1-sulfonic acid [2-(6-chloro-2-fluoro-3-methyl-phenoxy)-6-(1-methyl-6-oxo-1,6-dihydro-pyridin-3-yl)-pyrimidin-4-yl]-amide], for which the IC50 was less than 500 nM. Next, `CCC(CC)S(=O)(=O)Nc1cc(-c2ccc(=O)n(C)c2)nc(Oc2c(C)cccc2Cl)n1` [Example 259, Pentane-3-sulfonic acid [2-(2-chloro-6-methyl-phenoxy)-6-(1-methyl-6-oxo-1,6-dihydro-pyridin-3-yl)-pyrimidin-4-yl]-amide]: less than 500 nM. Next, `Cc1ccc(F)c(Oc2nc(NS(=O)(=O)C(C)C)cc(-c3ccc(=O)n(C)c3)n2)c1F` [Example 260, Propane-2-sulfonic acid [2-(2,6-difluoro-3-methyl-phenoxy)-6-(1-methyl-6-oxo-1,6-dihydro-pyridin-3-yl)-pyrimidin-4-yl]-amide]: less than 500 nM; `Cc1ccc(Cl)c(Oc2nc(NS(=O)(=O)C(C)C)cc(-c3ccc(=O)n(C)c3)n2)c1F` [Example 261, Propane-2-sulfonic acid [2-(6-chloro-2-fluoro-3-methyl-phenoxy)-6-(1-methyl-6-oxo-1,6-dihydro-pyridin-3-yl)-pyrimidin-4-yl]-amide]: less than 500 nM. `Cc1ccc(Cl)c(Oc2nc(NS(=O)(=O)CCC(C)C)cc(-c3ccc(=O)n(C)c3)n2)c1F` [Example 262, 3-Methyl-butane-1-sulfonic acid [2-(6-chloro-2-fluoro-3-methyl-phenoxy)-6-(1-methyl-6-oxo-1,6-dihydro-pyridin-3-yl)-pyrimidin-4-yl]-amide]: the IC50 is less than 500 nM. For the compound `Cn1cc(-c2cc(NS(=O)(=O)CC3CC3)nc(Oc3c(F)cccc3Cl)n2)ccc1=O` [Example 263, N-[2-(2-Chloro-6-fluoro-phenoxy)-6-(1-methyl-6-oxo-1,6-dihydro-pyridin-3-yl)-pyrimidin-4-yl]-C-cyclopropyl-methanesulfonamide], the concentration for half-maximal inhibition (IC50) was less than 500 nM. Next, `Cc1cccc(Cl)c1Oc1nc(NS(=O)(=O)CC2CC2)cc(-c2ccc(=O)n(C)c2)n1` [Example 264, N-[2-(2-Chloro-6-methyl-phenoxy)-6-(1-methyl-6-moxo-1,6-dihydro-pyridin-3-yl)-pyrimidin-4-yl]-C-cyclopropyl-methanesulfonamide]: less than 500 nM; `Cc1ccc(F)c(Oc2nc(NS(=O)(=O)CCC(C)C)cc(-c3ccc(=O)n(C)c3)n2)c1Cl` [Example 265, 3-Methyl-butane-1-sulfonic acid [2-(2-chloro-6-fluoro-3-methyl-phenoxy)-6-(1-methyl-6-oxo-1,6-dihydro-pyridin-3-yl)-pyrimidin-4-yl]-amide]: less than 500 nM; `Cc1cccc(Cl)c1Oc1nc(NS(=O)(=O)CCC2CC2)cc(-c2ccc(=O)n(C)c2)n1` [Example 266, 2-Cyclopropyl-ethanesulfonic acid [2-(2-chloro-6-methyl-phenoxy)-6-(1-methyl-6-oxo-1,6-dihydro-pyridin-3-yl)-pyrimidin-4-yl]-amide]: less than 500 nM. The compound `Cn1cc(-c2cc(NS(=O)(=O)CCC3CC3)nc(Oc3c(F)cccc3Cl)n2)ccc1=O` [Example 268, 2-Cyclopropyl-ethanesulfonic acid [2-(2-chloro-6-fluoro-phenoxy)-6-(1-methyl-6-oxo-1,6-dihydro-pyridin-3-yl)-pyrimidin-4-yl]-amide] showed an IC50 of less than 500 nM. The compound `Cc1cc(-c2cc(N)nc(Oc3ccc(F)cc3F)n2)cn(C)c1=O` [Example 270, 5-(6-amino-2-(2,4-difluorophenoxy)pyrimidin-4-yl)-1,3-dimethy-lpyridin-2(1H)-one] yielded an IC50 of less than 500 nM. On to `Cc1cc(-c2cc(NCCc3ccccc3)nc(Oc3ccc(F)cc3F)n2)cn(C)c1=O` [Example 271, 5-(2-(2,4-difluorophenoxy)-6-(phenethylamino)pyrimidin-4-yl)-1,3-dimethylpyridin-2(1H)-one], for which the IC50 was less than 500 nM. In the case of `Cc1cc(-c2cc(NCc3ccccc3)nc(Oc3ccc(F)cc3F)n2)cn(C)c1=O` [Example 272, 5-(6-(benzylamino)-2-(2,4-difluorophenoxy)pyrimidin-4-yl)-1,3-dimethylpyridin-2(1H)-one], the IC50 was less than 500 nM. `Cn1cc(-c2cc(NCc3ccccc3)nc(Oc3ccc(F)cc3F)n2)ccc1=O` [Example 274, 5-(6-(benzylamino)-2-(2,4-difluorophenoxy)pyrimidin-4-yl)-1-methylpyridin-2(1H)-one] registered an IC50 of less than 500 nM.

`CN(Cc1ccccc1)c1cc(-c2ccc(=O)n(C)c2)nc(Oc2ccc(F)cc2F)n1` [Example 275, 5-(6-(benzyl(methyl)amino)-2-(2,4-difluorophenoxy)pyrimidin-4-yl)-1-methylpyridin-2(1H)-one] displayed an IC50 of less than 500 nM.

Take `Cn1cc(-c2cc(Nc3ccccc3)nc(Oc3ccc(F)cc3F)n2)ccc1=O` [Example 276, 5-(2-(2,4-difluorophenoxy)-6-(phenylamino)pyrimidin-4-yl)-1-methylpyridin-2(1H)-one]: the IC50 was less than 500 nM. Next, `CCN(CC)c1cc(-c2ccc(=O)n(C)c2)nc(Oc2ccc(F)cc2F)n1` [Example 277, 5-(6-(diethylamino)-2-(2,4-difluorophenoxy)pyrimidin-4-yl)-1-methylpyridin-2(1H)-one]: less than 500 nM; `CCOc1ccc(C(C)Nc2cc(-c3ccc(=O)n(C)c3)nc(Oc3c(C)cccc3F)n2)cc1` (centres unmarked) [Example 278, 5-(6-((1-(4-ethoxyphenyl)ethyl)amino)-2-(2-fluoro-6-methylphenoxy)pyrimidin-4-yl)-1-methylpyridin-2(1H)-one]: less than 500 nM. Next, `CCc1ccc(C(C)Nc2cc(-c3ccc(=O)n(C)c3)nc(Oc3c(C)cccc3F)n2)cc1` (centres unmarked) [Example 279, 5-(6-((1-(4-ethylphenyl)ethyl)amino)-2-(2-fluoro-6-methylphenoxy)pyrimidin-4-yl)-1-methylpyridin-2(1H)-one]: less than 500 nM; `Cc1cccc(F)c1Oc1nc(NC2CCCc3ccccc32)cc(-c2ccc(=O)n(C)c2)n1` (centres unmarked) [Example 280, 5-(2-(2-fluoro-6-methylphenoxy)-6-((1,2,3,4-tetrahydronaphthalen-1-yl)amino)pyrimidin-4-yl)-1-methylpyridin-2(1H)-one]: less than 500 nM; `Cc1cccc(F)c1Oc1nc(NC(C)C)cc(-c2ccc(=O)n(C)c2)n1` [Example 281, 5-(2-(2-fluoro-6-methylphenoxy)-6-(isopropylamino)pyrimidin-4-yl)-1-methylpyridin-2(1H)-one]: less than 500 nM. With `Cc1cccc(Cl)c1Oc1nc(NC(C)c2ccccc2)cc(-c2ccc(=O)n(C)c2)n1` (centres unmarked) [Example 282, 5-(2-(2-chloro-6-methylphenoxy)-6-((1-phenylethyl)amino)pyrimidin-4-yl)-1-methylpyridin-2(1H)-one], the IC50 is less than 500 nM. Next, `Cc1cccc(Cl)c1Oc1nc(NC(C)C)cc(-c2ccc(=O)n(C)c2)n1` [Example 283, 5-(2-(2-chloro-6-methylphenoxy)-6-(isopropylamino)pyrimidin-4-yl)-1-methylpyridin-2(1H)-one]: less than 500 nM.

These data come from patent US10202360B2 (CELGENE QUANTICEL RESEARCH, INC., priority 2016, dated 2019).
